Data on ten molecules can be found in US6596512B1 (American Cyanamid Company, priority 1997, dated 2003).

The target in series [1] is T1, CeDAT1 (Caenorhabditis elegans, UniProt Q03614).
T1 sequence (Q03614 20-615): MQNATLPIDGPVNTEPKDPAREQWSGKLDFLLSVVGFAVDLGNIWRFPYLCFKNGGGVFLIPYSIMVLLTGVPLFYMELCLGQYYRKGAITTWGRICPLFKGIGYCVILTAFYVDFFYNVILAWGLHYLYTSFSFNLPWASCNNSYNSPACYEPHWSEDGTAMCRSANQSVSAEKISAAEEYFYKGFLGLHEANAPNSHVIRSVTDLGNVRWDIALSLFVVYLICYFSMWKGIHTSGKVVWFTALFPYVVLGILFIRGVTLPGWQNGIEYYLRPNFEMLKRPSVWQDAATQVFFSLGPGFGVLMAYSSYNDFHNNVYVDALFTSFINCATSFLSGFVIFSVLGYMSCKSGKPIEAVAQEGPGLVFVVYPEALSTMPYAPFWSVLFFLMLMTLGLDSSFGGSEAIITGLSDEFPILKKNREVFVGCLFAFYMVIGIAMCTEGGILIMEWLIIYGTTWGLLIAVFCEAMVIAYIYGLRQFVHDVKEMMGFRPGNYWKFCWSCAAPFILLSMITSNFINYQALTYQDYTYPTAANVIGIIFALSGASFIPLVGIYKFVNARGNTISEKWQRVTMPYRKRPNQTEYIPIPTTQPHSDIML
It counts as cell-based, C. elegans. The following applies: radiolabeled substrates each at 50 nm, pCeDAT1.

Series [2] concerns the target T1, CeDAT1. Put plainly: cell-based. Also noted: species or system C. elegans.
Series [3] deals with T1, CeDAT1. Put plainly: Saturation kinetics of catecholamine transport in pCeDAT1 transfected HeLa cells. It counts as cell-based, C. elegans. The following applies: radiolabeled substrate.
Series [4] has as its system CeDAT2 (Caenorhabditis elegans). The series is classed as cell-based, C. elegans. The following applies: radiolabeled substrates each at 50 nm, pCeDAT2.
Substrate in series [5]: NC[C@H](O)c1ccc(O)c(O)c1
Kind of series: cells, lysate or membranes. The following applies: 37.0 °C.

Chain of CeDAT2 (Caenorhabditis elegans) (Q03614 whole entry): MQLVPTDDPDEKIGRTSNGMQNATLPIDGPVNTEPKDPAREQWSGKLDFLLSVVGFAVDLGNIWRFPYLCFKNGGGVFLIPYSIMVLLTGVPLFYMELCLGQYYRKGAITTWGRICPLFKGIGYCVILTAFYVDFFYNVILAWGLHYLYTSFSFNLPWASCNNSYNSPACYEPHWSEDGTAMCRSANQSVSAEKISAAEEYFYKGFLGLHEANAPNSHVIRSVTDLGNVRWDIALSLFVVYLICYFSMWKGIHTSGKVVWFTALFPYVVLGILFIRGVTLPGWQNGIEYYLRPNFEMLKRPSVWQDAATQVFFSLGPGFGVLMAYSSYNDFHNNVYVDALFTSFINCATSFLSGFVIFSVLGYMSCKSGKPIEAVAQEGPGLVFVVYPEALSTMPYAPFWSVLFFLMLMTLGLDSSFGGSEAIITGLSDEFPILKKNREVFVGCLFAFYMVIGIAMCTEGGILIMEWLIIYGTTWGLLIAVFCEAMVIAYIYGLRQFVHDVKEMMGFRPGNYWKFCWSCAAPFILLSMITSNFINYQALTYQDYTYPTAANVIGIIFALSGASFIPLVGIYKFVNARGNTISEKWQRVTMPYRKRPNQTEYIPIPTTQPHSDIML

In the case of `NCCc1ccc(O)c(O)c1` [DA, Dopamine], the “Extent of transport relative to NE” value in series [1] was roughly 2 fold. The same molecule gave a Ki in series [2] of 146 nM. For the same molecule, in series [2] (pCeDAT1, HeLa cells, DA versus L-NE), the “Potency as inhibitor of transport relative to L-NE” value was roughly 10 fold. Besides, the Vmax of transport in series [3] turned out to be 0.6 pmol/10^6 cells/min.

In series [2], `COC(=O)[C@H]1[C@@H](OC(=O)c2ccccc2)C[C@@H]2CC[C@H]1N2C` [cocaine] returned a Ki of 3500 nM.

`OC1(c2ccc(Cl)cc2)c2ccccc2C2=NCCN21` (stereo not drawn) [mazindol] displayed a Ki in series [2] of 8 nM. Same read-out and setting: the same measure for `CNCCC(Oc1ccccc1OC)c1ccccc1` (stereo not drawn) [nisoxetine]: 3 nM. The same measure, in the same setting: the same measure for `Fc1ccc(C(OCCN2CCN(CCCc3ccccc3)CC2)c2ccc(F)cc2)cc1` [GBR12909]: 70 nM; for `NCCc1ccc(O)cc1` [Tyramine]: 827 nM. With `CNC[C@H](O)c1ccc(O)c(O)c1` [Epi], the “Transport of radiolabeled substrate” value in series [1] is “little or no transport”; in series [4], “transported only at very low levels”. On the same counts, the results for `NCCc1c[nH]c2ccc(O)cc12` [5HT, Serotonin] are “little or no transport” and “transported only at very low levels”. In the case of `NC[C@H](O)c1ccc(O)c(O)c1` [NE, Norepinephrine], the Vmax of transport in series [3] was found to be 0.46 pmol/10^6 cells/min.

B1: CeDAT1 (Caenorhabditis elegans) (protein)
chain: T1 sequence (Q03614 20-615)
On to B1, for which the Km in series [5] is 4.1 µM.
